Publication PMC9822358, “New Structures, Spectrometric Quantification, and Inhibitory Properties of Cardenolides from Asclepias curassavica Seeds” (Molecules, 2022)

Key:
[1] = target: porcine Na^+/K^+-ATPase (purified NKA from S. domesticus cerebral cortex); assay: Na+/K+ ATPase (NKA) inhibitory activity assay (inorganic phosphate released from ATP, absorbance at 700 nm); type: biochemical; conditions: unadapted NKA from Sus domesticus; read-out: IC50 against porcine NKA
Protocol: We tested the inhibitory capacity of the new compounds 1 and 2 and the known cardenolides 5–10 against porcine NKA. We used an in vitro assay to determine the IC50 of each compound and used ouabain as a reference.
We quantified the NKA inhibitory activity of the isolated cardenolides using purified NKA from S. domesticus cerebral cortex (Sigma-Aldrich-A7510-5UN, Steinheim, Germany), following protocols standardized by Petschenka et al.. Briefly, porcine NKA was diluted in di-water to a final assay concentration of 0.01 U/mL. The ATPase was exposed to exponentially decreasing concentrations from 10^−3 to 10^−8 M of ouabain (Sigma-Aldrich, O3125-1G, Steinheim, Germany) or the cardenolides 1–2 and 5–10. […] The NKA activity after cardenolide exposure was determined by quantification of inorganic phosphate released from enzymatically hydrolysed ATP. The […] levels were measured by photometric determination, reading the absorbance at 700 nm with a microplate reader (BMG Clariostar, BMG Labtech, Germany). The absorbance of each reaction was corrected with the respective background, and the inhibition curves were plotted in R studio [61] with log10-transformed cardenolide concentration versus percent of uninhibited control, with top and bottom asymptotes set to 1 and 0, respectively. […] IC50 values for each cardenolide and ouabain were also calculated from the inhibition curves using R studio. […]

porcine NKA = test system: porcine NKA; design: method as in PMID 33850021; conditions: cited from earlier work

SMILES	IC50 [1]	log10 IC50 against porcine NKA (porcine NKA; log10 of IC50 in M)	IC50 (porcine NKA; read-out: IC50 against porcine NKA)
C[C@H]1O[C@@H](O[C@H]2CC[C@@]3(C=O)[C@@H](CC[C@@H]4[C@@H]3CC[C@]3(C)[C@@H](C5=CC(=O)OC5)CC[C@]43O)C2)[C@H](O)[C@H](O)[C@@H]1O [Compound 9, gofruside]	0.0965 µM	–	–
CC1CC(O)C2(O)OC3CC4(C=O)C(CCC5C4CCC4(C)C(C6=CC(=O)OC6)C(O)CC54O)CC3OC2O1 (stereo not drawn) [Compound 10, 16α-hydroxycalotropin]	3.67 µM	–	–
C[C@@H]1C[C@H](O)[C@]2(O)O[C@@H]3C[C@@]4(C=O)[C@@H](CC[C@@H]5[C@@H]4CC[C@]4(C)[C@@H](C6=CC(=O)OC6)CC[C@]54O)C[C@H]3O[C@@H]2O1 [calotropin]	–	−6.56	0.27 µM
